The results in this text go back to patent US11166928B2, “Migraine prevention and treatment” (UNIVERSITATS-KINDERSPITAL, priority 2016, dated 2021).

“Also recorded” adds a separate entry of the source. Read-outs that look alike come from different tables or passages of the source.

On the set-up of data set [1]: species or system human. As to conditions: in vivo, po. The source says: (§1) Patients diagnosed with medium-high frequency or chronic migraine according to International Headache Society Classification version 3 by an experienced neurologist were included. They were excluded if they had any significant other neurological, psychiatric or medical disorder. A minimum average of 6 migraine days/month was required during the last 3 months. Ten migraine patients (age range: 25-61 years, 1 male, attack frequency range: 6-24 migraine days/months) were included in the pilot study and randomly assigned to four conditions: 1) L-leucine (LL), 2) L-lysine (LY), 3) racemic βHB, 4) D-βHB.
(§2) L-leucine (LL) and L-lysine (LY) are the two completely ketogenic amino acids. Via various steps, unused ketogenic amino acids (i.e. leucine or lysine) are metabolised into KB. While this is commonly known, to the best of our knowledge no data exists on the extent and time frame of such ketogenic amino acids to raise blood βHB levels. For the pharmacokinetics, four migraine patients were instructed to ingest either 13 g LL or 13 g LY on an empty stomach. Blood βHB and glucose concentrations were measured using a portable point-of-care blood ketone meter (Precision Xtra®) and matching test stripes at 5 points in time: 1) Baseline (directly before consumption), 2) 0.5 h after consumption, 3) 1 h after consumption, 4) 2 h after consumption, 5) 3 h after consumption and 6) 4 h after consumption. 13 g roughly correspond to the same number of particles (mmol) as 10 g βHB. Highest average concentrations of βHB were found after 2 and 3 h (mean=0.35 mmol/I; SEM=0.05) and remained levels to remain elevated for over 4 hours (see FIG. 1).
For determining pharmacokinetics, the patients were given 10 g racemic beta-hydroxybutyrate (βHB) orally dissolved in water in 3 different conditions: (1) post cibum (after meal) (2) ante cibum (before meal) (3) 1 hour before meal. Blood βHB and glucose concentrations were measured using a portable point-of-care blood ketone meter (Precision Xtra®) and matching test stripes at 5 points in time: 1) Baseline (directly before consumption), 2) 0.5 h after consumption, 3) 1 h after consumption, 4) 2 h after consumption, 5) 3 h after consumption and 6) 4 h after consumption. […] The levels dropped to near baseline after 2 hours.
Participants were given 10 g D-beta-hydroxybutyrate (βHB) orally dissolved in water in a fasted state. Blood βHB and glucose concentrations were measured using a portable point-of-care blood ketone meter (Precision Xtra®) and matching test stripes at 5 points in time: 1) Baseline (directly before consumption), 2) 0.5 h after consumption, 3) 1 h after consumption, 4) 2 h after consumption, 5) 3 h after consumption and 6) 4 h after consumption (see FIG. 5A). As with racemic βHB, highest average concentrations of βHB were found after approximately 1 h (mean=1.94 mmol/I; SEM=0.48).

The subject of data set [2] is migraine patients. As to the kind of experiment: Tolerability, adverse events and palatability in the pilot experiments. The data set is classed as in vivo, human.
Source text: (§3) Monthly migraine attack frequency was summarized over the last 3 months and the average was used for baseline comparison. Patients were either instructed to take 26 g LL or 26 g LY in two daily doses (one hour before breakfast and one hour before dinner, respectively) for the duration of 4 weeks. They were instructed to refrain from any other changes in medication or food habits for the duration of that period. The primary outcome measure was changes in days with migraines from baseline. Days with migraine were recorded using a mobile app (myheadache.ch) or a pen and paper diary and averaged across participants.
as §3, with “take 20 g βHB,” for “take”
(§4) Monthly migraine attack frequency was summarized over the last 3 months and the average was used for baseline comparison. Patients were instructed to take 10 g racemic βHB for the duration of 8 weeks, followed by one week wash-out period and then 8 weeks of 10 g D-βHB daily. They were instructed to refrain from any other changes in medication or food habits for the duration of that period. The primary outcome measure was changes in days with migraines from baseline. Days with migraine were recorded using a mobile app (myheadache.ch) or a pen and paper diary and averaged across participants.

Data set [3] concerns migraine patients. In words: Open-label pilot intervention: change in days with migraine from baseline (headache diary). The data set is classed as in vivo, human.
Source text: as §1, with “D-βHB. […]” for “D-βHB.”
as §3, with “take 20 g βHB,” for “take”
Those two chronic migraineurs (20 or 22 migraine days/month) where instructed to take 20 g racemic βHB daily for 4 weeks and after a 1 week washout period double the dose to 40 g βHB for the following 4 weeks. Migraine days were recorded for the duration of the intervention and patients were instructed to refrain from any other life-style or medication changes. The mean baseline attack frequency was 21 migraine days (SEM=1) and dropped to 11.5 days after 4 weeks of 20 g βHB daily and 6 days after 4 weeks of 40 g βHB daily (see FIG. 4 A). This preventive effect is roughly proportional to the increase in dose, with 20 g βHB leading to 46% reduction in migraine days from baseline (SEM=18.86) and 40 g βHB to a 72% reduction (SEM=12.95; see FIG. 4 B).
as §4

Data set [4] has as its system migraine patients. In words: Tolerability, adverse events and palatability in the pilot experiments. The data set is classed as in vivo, human. As to conditions: 40 g daily, 4 weeks; 2 patients.
Data set [5] is described as follows: Blood glucose levels after a single oral dose, measured at the same time as βHB. The data set is classed as in vivo, human. The note with it: 10 g single oral dose, ante cibum/fasted.
Source text: as §2, with “13 g roughly correspond to the same number of particles (mmol) as 10 g βHB. Highest average concentrations of βHB were found after 2 and 3 h (mean=0.35 mmol/I; SEM=0.05) and remained levels to remain elevated for over 4 hours (see FIG. 1).” left out
For determining pharmacokinetics, the patients were given 10 g racemic beta-hydroxybutyrate (βHB) orally dissolved in water in 3 different conditions: (1) post cibum (after meal) (2) ante cibum (before meal) (3) 1 hour before meal. Blood βHB and glucose concentrations were measured using a portable point-of-care blood ketone meter (Precision Xtra®) and matching test stripes at 5 points in time: 1) Baseline (directly before consumption), 2) 0.5 h after consumption, 3) 1 h after consumption, 4) 2 h after consumption, 5) 3 h after consumption and 6) 4 h after consumption. […]

[6] abbreviates: 10 g daily, 8 weeks, 2 patients, mean baseline 13.5 days.

Regarding `CC(C)C[C@H](N)C(=O)O` [LL, L-leucine, reference compound], the “Time of highest average βHB concentration” value in data set [1] (human) is 2 and 3 h. Also, the “Adverse events / tolerability” value in data set [2] (26 g daily (13 g twice a day)) was “diarrhoea or nausea”.
Consider `CC(O)CC(=O)O` (racemic) [racemic βHB, beta-hydroxybutyric acid], for which the “Half-life of blood βHB elevation (in words)” value in data set [1] (human) is recorded as “very short”. For the same compound, in data set [1] (human), the “Time after which blood βHB levels dropped back to (near) baseline” value was determined as 2 h. For the same compound, in data set [1] (human), the “Time of highest average βHB concentration” value is recorded as “approximately 1 h”. The “Peak blood βHB level relative to LL” value in data set [1] is given as “approximately double”. Also, the “Average reduction in migraine days compared to baseline” value amounted to 18.5% in data set [3] (10 g daily, 8 weeks, 2 high-frequency migraineurs (17 and 10 migraine days/month)); 51% in data set [3] (20 g daily in two doses, 4 weeks, 4 medium-high frequency migraineurs (6-22 migraine days/month)). In addition, the “Mean migraine days after intervention” value was 11 days in data set [3] (setting [6]); 11.5 days in data set [3] (20 g daily, 4 weeks, 2 chronic migraineurs, mean baseline 21 migraine days); 8 days in data set [3] (20 g daily, 4 weeks, mean baseline 16.25 days); 6 days in data set [3] (40 g daily, 4 weeks, 2 chronic migraineurs, mean baseline 21 migraine days). The “Reduction in migraine days from baseline” value in data set [3] (20 g daily, 4 weeks, 2 chronic migraineurs (20 or 22 migraine days/month)) came out at 46%. Besides, the “Range of reduction in migraine days compared to baseline” value in data set [3] (20 g daily, 4 weeks, range across patients) is given as 25-80%. The “Side-effects at increased dose” value in data set [4] is “increased side-effects further in both patients; also recorded: exacerbated the side-effects”. The “Adverse events / tolerability” value in data set [2] (20 g daily, 4 weeks, 5 patients) is “severe nausea and vertigo; also recorded: gastrointestinal upset; also recorded: problematic”. Further, the “Change in blood glucose levels after consumption” value in data set [5] was “substantial drop; also recorded: drop in blood glucose”.
Consider `NCCCC[C@H](N)C(=O)O` [LY, L-lysine, reference compound], for which the “Adverse events / tolerability” value in data set [2] (26 g daily (13 g twice a day)) was “diarrhoea or nausea”.
In the case of `CC(O)CC(=O)O` [D-βHB, D beta-hydroxybutyric (βHB) acid], in data set [1], the “Time of highest average βHB concentration” value is recorded as “approximately 1 h”. Moreover, the “Mean migraine days after intervention” value in data set [3] (setting [6]) was found to be 4.25 days. In data set [2] (10 g daily, 8 weeks (2 months), 2 patients), the Side-effects / tolerability result is listed as “No side-effects; also recorded: much better tolerated; also recorded: fewer gastrointestinal side-effects”. For the same compound, the “Change in blood glucose levels after consumption” value in data set [5] was “completely stable; also recorded: does not seem to lead to a potentially unwanted drop in blood glucose levels; also recorded: no concomitant drop in blood glucose”.
`CC(O)CC(=O)O` (racemic) [βHB, beta-hydroxybutyric acid]: the “Median migraine days after the intervention” value in data set [3] (20 g daily, 4 weeks, median at baseline 18) worked out at 7 migraine days. Also, the “Tolerability (in words)” value in data set [2] (in comparison to the ketogenic amino acids, dose and isomer not stated) is given as “well tolerated”.
